According to ChEMBL document CHEMBL5055632, “Anti-Inflammatory and Antinociceptive Properties of Kielmeyerone A, a Chromenone Isolated from the Roots of Kielmeyera reticulata” (J Nat Prod, 2021):
Activity calls are given as the source filed them. The calls are words filed in the database; no cut-off is given here.

Columns and labels:
Mus musculus [1] = assay: Antinociceptive activity in Swiss Webster mouse model of formalin-induced biphasic nociceptive response assessed as reduction in pain during early phase at 5 mg/kg, ip administered 40 mins before formalin injection and measured after 10 mins post formalin challenge; format: functional, organism-based; conditions: time 50.0 min
Mus musculus [2] = assay: Antinociceptive activity in Swiss Webster mouse model of formalin-induced biphasic nociceptive response assessed as reduction in pain during late phase at 5 mg/kg, ip administered 40 mins before formalin injection and measured after 10 to 30 mins post formalin challenge; format: functional, organism-based; conditions: time 50-70 min
Mus musculus [3] = assay: Antiinflammatory activity in ip dosed Swiss Webster mouse model of complete freund's adjuvant-induced paw edema assessed as reduction in paw edema when administered 40 mins before CFA injection by plethysmometer analysis; format: functional, organism-based; conditions: dose 12.5-50 mg/kg
Mus musculus [4] = assay: Antinociceptive activity in ip dosed Swiss Webster mouse model of formalin-induced biphasic nociceptive response assessed as reduction in pain during late phase when administered 40 mins before formalin injection and measured after 10 to 30 mins post formalin challenge; format: functional, organism-based; conditions: dose 12.5-50 mg/kg, time 50-70 min
Mus musculus [5] = assay: Effect on motor performance in Swiss Webster mouse assessed as effect on relaxing or motor deficit at 100 mg/kg, ip measured up to 120 sec by rotarod test; format: ADME, organism-based; conditions: in vivo, 2 min
Mus musculus [6] = assay: Antinociceptive activity in Swiss Webster mouse model of formalin-induced biphasic nociceptive response assessed as reduction in pain during early phase at 12.5 to 50 mg/kg, ip administered 40 mins before formalin injection and measured after 10 mins post formalin challenge; format: functional, organism-based; conditions: dose 12.5-50 mg/kg, time 50.0 min
J774 [7] = assay: Cytotoxicity against LPS and IFN-gamma stimulated mouse J774 cells at 0.39 to 25 uM incubated for 72 hrs by alamar blue dye based colorimetric plate analysis; format: cell-based; conditions: j774, 72 h, dose 0.39-25 µM
J774 [8] = assay: Antiinflammatory activity against mouse J774 cells assessed as inhibition of LPS/IFNgamma-stimulated NO production at 0.097 to 1.56 uM incubated for 24 hrs bu Griess reagent based assay; format: functional, cell-based; conditions: dose 0.097-1.56 µM
Mus musculus [9] = assay: Antiinflammatory activity in Swiss Webster mouse model of complete freund's adjuvant-induced paw edema assessed as reduction in paw edema at 2 mg/kg, ip administered 40 mins before CFA injection by plethysmometer analysis; format: functional, organism-based

CN1CC[C@]23c4c5ccc(O)c4O[C@H]2[C@@H](O)C=C[C@H]3[C@H]1C5
Activity (Mus musculus [1]): Active
Activity (Mus musculus [2]): Active

CC(C)=CCC1(CC=C(C)C)C(=O)c2c(CC(C)C)cc(=O)oc2C(C(=O)CC(C)C)=C1O
Activity (Mus musculus [3]): Dose-dependent effect
Activity (Mus musculus [4]): inactive
Activity (Mus musculus [5]): Non-Toxic
Activity (Mus musculus [6]): Dose-dependent effect
Activity (J774 [7]): Non-Toxic
inhibition (J774 [8]): Active

C[C@@H]1C[C@H]2[C@@H]3CCC4=CC(=O)C=C[C@]4(C)[C@@]3(F)[C@@H](O)C[C@]2(C)[C@@]1(O)C(=O)CO
Activity (Mus musculus [9]): Active

COc1ccc2c(c1)c(CC(=O)O)c(C)n2C(=O)c1ccc(Cl)cc1
Activity (Mus musculus [1]): inactive
Activity (Mus musculus [2]): Active
